These results are taken from US20260294870A1, “INDOLE LACTATE FOR THE TREATMENT OF MULTIPLE SCLEROSIS” (The Johns Hopkins University, priority 2023, published 2026).

Entries after “also recorded” stand apart in the source; their conditions may differ.

The test system of data set [1] is murine oligodendrocyte precursor cells. The data set is described as follows: Differentiation of murine oligodendrocyte precursor cells (immunocytochemistry, qPCR). Format: cell-based, murine (neonatal mice). The note with it: for OPC differentiation after PDGF-a withdrawal: PDGF-a withdrawal plus ILA or T3; for OPC differentiation (CC1 expression): compared to control conditions or OPCs treated with PDGF-a. The text has this: We tested the effect of several doses of indole lactate on differentiation of oligodendrocyte precursor cells isolated using immune-panning from neonatal mice.
(In general: Quantitative PCR measures a nucleic acid by following its amplification.)

The next data set concerns OPCs from Ahr KO mice. Put plainly: OPC differentiation in OPCs from constitutive Ahr-KO mice. Format: cell-based. The conditions noted are these: listed as ILA. The text has this:
We further evaluated the mechanism of ILA using OPCs from mice that lack the Ahr gene—constitutive Ahr-KO mice.

In data set [2] the test system is Arylhydrocarbon Receptor (AhR). The data set is described as follows: CYP1B1 (AhR responsive gene) expression in human ES derived OPCs, quantitative PCR. Format: cell-based. An excerpt: We noted presence of AhR in Olig2+ and PDGFRα+ cells confirming that AhR is present in oligodendrocyte precursor cells. We also obtained RNA from human ES derived OPCs that had been treated with either vehicle or two different doses of ILA for 5 days.

The subject of data set [3] is OPCs from wild type (WT) mice. The data set is described as follows: OPC differentiation in OPCs from WT mice. Format: cell-based.
Another data set concerns macrophages. Put plainly: Nitric oxide production in macrophages. Format: cell-based.
Data set [4] relates to experimental autoimmune encephalomyelitis. Put plainly: Experimental autoimmune encephalomyelitis, indole lactate IP. The note with it: for Disease severity (EAE): p<0.0001. Format: in vivo, Mice (C57/BL6). The text has this:
(§1) Mice (C57/BL6, 8-9 week old) were immunized with MOG35-55 peptide and CFA and received IP injection of PTX on day 0 and 2. […] Mice were weighed and scored daily using the following scale (0-normal, 1-limp tail, 2-hind-limb weakness, 3-hind-limb paralysis, 4-fore-limb weakness, 5-death).

Data set [5] has as its system mouse model of demyelination (cuprizone). Put plainly: Cuprizone model of demyelination, oral ILA in drinking water. Format: in vivo, mice. On the procedure: In subsequent experiments, we fed mice with 0.2% cuprizone for 5 weeks and then randomized them to ILA 2 mM in drinking water or acidified water as a control for 2 weeks. […] These observations provide evidence that oral administration of ILA promotes remyelination in vivo in a mouse model of demyelination.

Data set [6] concerns experimental autoimmune encephalomyelitis. Put plainly: Experimental autoimmune encephalomyelitis, oral indole lactate. Format: in vivo, Mice (C57/BL6). The conditions noted are these: for severity of EAE: oral, ILA 2 mM in drinking water from day 7 post-immunization, 3 weeks, p<0.0001 vs vehicle. The protocol:
as §1
We subsequently performed additional experiments in which we induced EAE using the same paradigm, however at day 7 post-immunization mice were randomized to receive ILA orally in drinking water (ILA 2 mM) or acidified water (adjusted to a similar pH) for the next 3 weeks. At four weeks post-immunization mice were euthanized and tissues were collected and processed for immunohistochemistry. We stained sections of the spinal cord to assess for extent of demyelination and for infiltration of immune cells.
Additionally, we repeated experiments and euthanized mice at the peak of disease to obtain spinal cord tissues for flow cytometric analyses.

Data set [7] relates to Cuprizone-induced model of demyelination. Put plainly: Cuprizone-induced model of demyelination, ILA 20 or 40 mg/kg. Format: in vivo, Mice. The note with it: 0.2% Cuprizone 4 weeks then regular chow one week. On the procedure: We tested the ability of indole lactate to promote remyelination in the Cuprizone-induced model of demyelination. Mice were fed with 0.2% Cuprizone for 4 weeks to induce demyelination and then switched to regular chow for one week. At three weeks of Cuprizone feeding mice were randomized to treatment with ILA 20 mg/kg, ILA 40 mg/kg or vehicle for two weeks.

Data set [8] relates to human embryonic stem cell derived oligodendrocyte precursor cells. Put plainly: Differentiation of human embryonic stem cell derived oligodendrocyte precursor cells (luciferase under MBP promoter). Format: cell-based. The text has this: We also tested the effect of indole lactate on differentiation of human embryonic stem cell derived oligodendrocyte precursor cells. In this system, the cells produce luciferase under control of the promoter for MBP. Thus, OPC differentiation can be measured using the quantity of luciferase produced by cells.

The subject of the next data set is gut microbiota. Put plainly: Gut microbiota in EAE mice by 16s rRNA sequencing. Format: in vivo. The text has this: We examined the change in the gut microbiota using 16s rRNA sequencing at baseline, peak of disease and chronic disease in mice receiving ILA or vehicle orally.
Another data set has as its system human ES derived OPCs. Put plainly: OPC differentiation of human ES derived OPCs with AhR antagonist. Format: cell-based. The note with it: small molecule AhR antagonist. An excerpt: We also tested the effects of blocking AhR signaling using a small molecules AhR antagonist.
The test system of data set [9] is Murine MOG specific T cells. The data set is described as follows: T cell proliferation, activation and Th17 polarization by flow cytometry. Format: cell-based, murine (2D2 TCR transgenic C57/BL6 mice). On the procedure: Murine MOG specific T cells were isolated and stimulated with […] Th17 polarizing conditions for 72 hours followed by flow-cytometry to analyze viability, proliferation and Th17 polarization in presence of vehicle or varying doses of ILA;
T cells were isolated from spleen and lymph nodes of 2D2 TCR transgenic C57/BL6 mice using negative selection (STEMCELL CD4 T cell isolation kit). T cells were then cultured in c-RPMI with MOG35-55 peptide in the presence of irradiated antigen presenting cells with or without additional cytokines to polarize the cells to a Th17 phenotype for 72 hours and then underwent flow-cytometry to analyze proliferation and Th17 polarization.
(In general: Flow cytometry measures light scatter and fluorescence of single cells or particles in a stream.)

Data set [10] is described as follows: Circulating ILA and IAA levels with oral ILA supplementation. Format: in vivo, mice. An excerpt:
FIG. 12A, FIG. 12B, FIG. 12C, FIG. 12D, FIG. 12E, FIG. 12F, FIG. 12G, FIG. 12H, and FIG. 12I show: FIG. 12A. Schematic of product of ILA and IAA and the change in levels with ILA supplementation in naïve mice. FIG. 12B. Clinical scores and plasma ILA and IAA levels at end of experiment in mice on vehicle or oral ILA supplementation. FIG. 12C. Change in ILA/IAA ratio. FIG. 12D. Correlation of ILA/IAA ratio and cumulative EAE score. FIG. 12E. Gut microbiota composition in vehicle and ILA groups at various time points (n=10 each group). FIG. 12F. Change in alpha diversity over the course of EAE.

Where [11] appears, read: ILA 2 mM in drinking water, 2 weeks, vs vehicle.
Where [12] appears, read: spinal cord, four weeks post-immunization, oral ILA 2 mM in drinking water.
[13] abbreviates: spinal cord, peak of disease, oral ILA.

Take `N[C@@H](Cc1cc(I)c(Oc2ccc(O)c(I)c2)c(I)c1)C(=O)O` [T3, reference compound]: in data set [1], the “OPC differentiation after PDGF-a withdrawal” value is “further potentiated”.

For the compound `O=C(O)C(O)Cc1c[nH]c2ccccc12` (stereo not drawn) [indole lactate, indole-3-lactic acid], the “OPC differentiation (pro-differentiation effect of ILA)” value in the data set with OPCs from Ahr KO mice is reported as “loss of pro-differentiation effect; also recorded: the effect was lost”. Further, the CYP1B1 expression entry in data set [2] (high-dose ILA) is reported as “CYP1B1 expression increased”. For the same compound, the “expression of CYP1B1 (AhR responsive gene)” value in [2] (two doses of ILA, 5 days, vs vehicle, dose-response relationship) is recorded as “increased expression of CYP1B1”. Also, the OPC differentiation result in data set [3] is on record as “promoted OPC differentiation”. For the same compound, the “production of nitric oxide in macrophages” value in the data set on macrophages is “reduced pro-inflammatory cytokine production from T cells in culture and the production of nitric oxide in macrophages”. In data set [4] (10 and 20 mg/kg IP twice daily vs vehicle), the “disease severity, dose dependence (EAE)” value is given as “significant dose-dependent reduction in disease severity”. Moreover, the “Disease severity (EAE)” value in data set [4] (high-dose (20 mg/kg) IP twice daily vs vehicle) and in data set [4] (low-dose (10 mg/kg) IP twice daily vs vehicle) was “reduced significantly” each time. The “remyelination in the corpus callosum (black gold and fluoromyelin staining)” value in [5] (ILA 2 mM in drinking water, 2 weeks after 0.2% cuprizone 5 weeks, vs acidified water) is on record as “significantly increased remyelination”. Also, the “g ratio (scanning EM, corpus callosum)” value in data set [5] (setting [11]) is “significantly lower g ratio”. In addition, the “proportion of myelinated axons (scanning EM, corpus callosum)” value in data set [5] (setting [11]) was “higher proportion of myelinated axons”. In addition, in [5] (oral ILA vs vehicle), the “proportion of remyelinated axons (electron micrographs, corpus callosum)” value was “higher proportion of remyelinated axons”. Besides, the “immune cell infiltration on IHC and flow cytometry analysis” value in [6] (oral indole lactate vs vehicle) is given as “reduction in immune cell infiltration”. For the same compound, the “severity of EAE” value in data set [6] is “reduced significantly”; in [6] (listed as ILA) it was “reduced severity of EAE”. Also, the “extent of demyelination on IHC” value in [6] (setting [12]) is given as “reduced extent of demyelination”. In [6] (setting [12]), the “immune cell infiltration on IHC” value was “reduced extent of demyelination and immune cell infiltration”. Besides, the “iNOS producing inflammatory macrophages (flow cytometry)” value in [6] (setting [13]) is “shift towards less iNOS producing inflammatory macrophages”. Moreover, the “infiltration of T cells and macrophages (flow cytometry)” value in [6] (setting [13]) is “reduced infiltration of T cells and macrophages”. Further, the “area of myelination in the corpus callosum (Black Gold staining)” value in [7] (ILA 20 mg/kg for two weeks) and in data set [7] (ILA 40 mg/kg for two weeks) was “significant increase in area of myelination” in each case. Moreover, the “oligodendrocyte precursor cell differentiation based on production of luciferase (marker of MBP expression)” value in data set [8] (100 μM) and in [8] (300 μM) was “promoted oligodendrocyte precursor cell differentiation” in each case. Moreover, the “OPC differentiation measured by Luciferase release” value in [8] (ILA treatment conditions, dose-dependent) is on record as “significant increase in OPC differentiation”. The “acetylene degradation pathway (gut microbiota functional pathway)” value in the data set on gut microbiota (ILA supplementation) is recorded as “reduced acetylene degradation pathway”. Moreover, the “change in multiple bacteria (abundance)” value with gut microbiota (oral ILA vs vehicle) was “differential change in multiple bacteria”. The “overall composition of the gut microbiota” value in the data set on gut microbiota (oral ILA vs vehicle, baseline, peak and chronic disease) is given as “change in the overall composition of the gut microbiota”. Besides, the “effect of AhR antagonist on pro-differentiating effect of ILA” value in the data set with human ES derived OPCs (high doses of ILA) is given as “this effect was lost at high doses”. Further, the “pro-differentiating effect of ILA in presence of AhR antagonist” value in the data set on human ES derived OPCs (low doses of ILA, listed as ILA) was “an AhR inhibitor reverses the effects of ILA on OPC differentiation; also recorded: the AhR antagonist blocked the pro-differentiating effects”. Moreover, in data set [9] (72 hours), the T cell activation result is “reduces T cell proliferation, activation”. Moreover, in data set [9] (MOG35-55 peptide, Th17 polarizing cytokines, 72 hours, dose-dependent), the Th17 polarization entry was “reduced T cell proliferation and Th17 polarization in a dose-dependent manner”. Moreover, in data set [9] (MOG35-55 peptide, irradiated antigen presenting cells, 72 hours, dose-dependent), the T cell proliferation entry was “reduces T cell proliferation; also recorded: reduced T cell proliferation and Th17 polarization in a dose-dependent manner”. The “pro-inflammatory cytokine production from T cells” value in data set [9] (in culture) was “reduces T cell proliferation, activation and pro-inflammatory cytokine production; also recorded: reduced pro-inflammatory cytokine production”. The “proportion of Olig2 and CC1 double-positive cells” value in [1] (ILA 150 μM vs vehicle) and in [1] (ILA 300 μM vs vehicle) was “significantly higher proportion” throughout. Further, the “expression of MBP (qPCR)” value in data set [1] (ILA 300 μM with low dose T3 compared to T3 alone) is reported as “significantly higher expression”. Also, the “OPC differentiation after PDGF-a withdrawal” value in data set [1] is “further potentiated”. In addition, the “OPC differentiation (CC1 expression)” value in data set [1] was “dose-dependent increase in OPC differentiation”; in data set [1] (listed as ILA) it was “increased differentiation of OPCs”. In data set [10] (EAE mice), the ILA/IAA ratio result is on record as “increase in ILA/IAA ratio”. For the same compound, the “circulating ILA levels” value in [10] (naïve mice) is on record as “increased circulating ILA levels”.
